Experimental data taken from ChEMBL document CHEMBL4418497, “Compositions and methods relating to inhibiting serine hyrdoxymethyltransferase 2 activity” (2016).

Tests used:
[1] = target: T1, Serine hydroxymethyltransferase, mitochondrial (Homo sapiens) (UniProt P34897); assay: Inhibition of His-tagged human recombinant SHMT2 expressed in Escherichia coli BLR(DE3) assessed as reduction in NADPH level using L-serine, THF and NADP+ at 6.5 or 26.5 uM incubated for 5 mins by SHMT2-MTHFD coupled reaction based fluorescence assay relative to control
T1 sequence (whole entry): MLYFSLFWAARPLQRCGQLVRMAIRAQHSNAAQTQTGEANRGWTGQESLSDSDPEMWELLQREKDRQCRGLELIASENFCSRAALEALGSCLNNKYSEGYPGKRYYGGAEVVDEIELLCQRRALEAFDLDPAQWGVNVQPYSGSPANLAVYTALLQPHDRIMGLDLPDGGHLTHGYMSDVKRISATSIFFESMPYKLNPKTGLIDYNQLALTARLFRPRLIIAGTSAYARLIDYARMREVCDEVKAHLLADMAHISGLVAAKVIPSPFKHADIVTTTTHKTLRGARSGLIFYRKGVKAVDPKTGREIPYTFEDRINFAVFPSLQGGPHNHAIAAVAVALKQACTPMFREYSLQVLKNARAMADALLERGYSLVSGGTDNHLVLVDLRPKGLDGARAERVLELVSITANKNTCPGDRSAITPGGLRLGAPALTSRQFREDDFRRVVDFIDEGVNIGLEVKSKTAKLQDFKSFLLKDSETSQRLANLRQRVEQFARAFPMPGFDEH

[2] = target: T2, Serine hydroxymethyltransferase, mitochondrial (Homo sapiens, UniProt P34897); assay: Inhibition of His-tagged human recombinant SHMT2 expressed in Escherichia coli BLR(DE3) assessed as reduction in NADPH level using L-serine, THF and NADP+ incubated for 5 mins by SHMT2-MTHFD coupled reaction based fluorescence assay; conditions: read-out: pIC50 (converted)
T2 sequence (P34897 whole entry): T1 sequence (whole entry)

| SMILES | inhibition [1] [%] | IC50 [2] [nM] |
| --- | --- | --- |
| Cc1cc(/C=C/c2ccc3cc(N(C)C)ccc3[n+]2C)c(C)n1-c1ccccc1 | 88.2 | 2570 |
| CN(C)c1cc2c(Nc3ccc4c(cnn4Cc4ccccc4)c3)ncnc2cn1 [GW282974X] | 77.5 | 2450 |
| CCOC(=O)Nc1ccc(NCc2ccc(F)cc2)nc1N [FLUPIRTINE] | 86.1 | 933 |
| CNCC[C@H](Oc1cccc2ccccc12)c1cccs1 [DULOXETINE] | 83.8 | 6920 |
| COc1cc(NC(C)CCCN)c2ncccc2c1 (configuration not stated) [PRIMAQUINE] | 91.9 | 437 |
| CC(=O)C1CC[C@H]2C3CC[C@H]4C[C@H](O)CC[C@]4(C)C3CC[C@]12C (some centres not stated) | 65.9 | – |
| COC(=O)CC1C(C)(C)C(OC(C)=O)[C@@H]2[C@@H](OC(C)=O)[C@]34O[C@@H]2[C@]1(C)C3CC[C@]1(C)C4=CC(=O)O[C@H]1c1ccoc1 (some centres not stated) | 52.4 | – |
| COC(=O)[C@@H]1OC(=O)C2OC23[C@]2(C)[C@H](O)CC4C(C)(C)[C@H](OC(C)=O)C[C@H](OC(C)=O)[C@]4(C)[C@H]2CC[C@@]13C (some centres not stated) | 81.8 | – |
| COc1ccc(Cc2nccc3cc(OC)c(OC)cc23)cc1OC [PAPAVERINE] | 59.2 | 2690 |
| Brc1c(NC2=NCCN2)ccc2nccnc12 | 79 | – |
| COc1ccc2c(c1O)-c1c(OC)c(OC)cc3c1C(C2)N(C)CC3 (configuration not stated) | 69.3 | – |
| Cc1nc2c(OCc3ccccc3)cccn2c1CC#N | 77.9 | – |
| CC(C)C[C@H](N(C)C)C1(c2ccc(Cl)cc2)CCC1 | 62 | – |
| CC(C(=O)Nc1cccc(/N=C/c2c(O)ccc3ccccc23)c1)c1ccccc1 (configuration not stated) | 60.1 | – |
| COc1ccc(OC)c(NC(=S)N2CCN(c3ncc(C(F)(F)F)cc3Cl)CC2)c1 | 60.2 | – |
| CCC(N)C(O)c1ccc(O)c(O)c1 (configuration not stated) | 87 | – |
